Test results: publication PMC10734773, “Synthesis of benzoyl hydrazones having 4-hydroxy-3,5-dimethoxy phenyl ring, their biological activities, and molecular modeling studies on enzyme inhibition activities” (Turkish Journal of Chemistry, 2021)

Key:
[1] = target: AChE (acetylcholinesterase from eel) (Electrophorus electricus, UniProt O42275); conditions: acetylthiocholine-type substrate (AcI [sic]), DTNB, pH 8.0, 25 °C, 15 min preincubation
[2] = target: T1, Tyrosinase (tyrosinase mushroom); experiment: spectrophotometric dopachrome assay, […] nm; format: biochemical, Agaricus bisporus; conditions: L-DOPA, pH 6.8, 37 °C, 10 min preincubation
T1 construct: gene PPO3; native mushroom tyrosinase preparation, isoenzyme mixture not resolved; only 'mushroom' given

[3] = target: T2, BChE (butyrylcholinesterase from horse serum) (Equus caballus, UniProt P81908); experiment: Ellman assay, […] nm; format: biochemical; conditions: butyrylthiocholine chloride, DTNB, pH 8.0, room conditions, 15 min preincubation
T2 construct: native enzyme preparation from horse serum
T2 sequence (P81908 whole entry): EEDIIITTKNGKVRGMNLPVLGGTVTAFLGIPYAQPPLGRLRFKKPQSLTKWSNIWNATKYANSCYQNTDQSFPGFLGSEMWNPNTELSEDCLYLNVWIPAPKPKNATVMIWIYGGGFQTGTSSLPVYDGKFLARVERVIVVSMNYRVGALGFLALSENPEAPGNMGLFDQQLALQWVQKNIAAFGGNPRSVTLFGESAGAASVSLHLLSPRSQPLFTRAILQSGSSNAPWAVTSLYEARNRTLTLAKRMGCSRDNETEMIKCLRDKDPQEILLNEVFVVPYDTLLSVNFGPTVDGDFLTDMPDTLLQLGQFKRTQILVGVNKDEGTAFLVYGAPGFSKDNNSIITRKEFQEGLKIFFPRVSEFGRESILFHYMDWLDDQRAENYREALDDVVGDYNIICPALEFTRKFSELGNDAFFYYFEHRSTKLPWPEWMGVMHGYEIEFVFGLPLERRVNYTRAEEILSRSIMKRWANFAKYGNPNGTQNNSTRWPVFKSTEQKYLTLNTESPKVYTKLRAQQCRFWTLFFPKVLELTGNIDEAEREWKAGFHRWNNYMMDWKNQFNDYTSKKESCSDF

AChE (acetylcholinesterase from eel), sequence (O42275 24-633): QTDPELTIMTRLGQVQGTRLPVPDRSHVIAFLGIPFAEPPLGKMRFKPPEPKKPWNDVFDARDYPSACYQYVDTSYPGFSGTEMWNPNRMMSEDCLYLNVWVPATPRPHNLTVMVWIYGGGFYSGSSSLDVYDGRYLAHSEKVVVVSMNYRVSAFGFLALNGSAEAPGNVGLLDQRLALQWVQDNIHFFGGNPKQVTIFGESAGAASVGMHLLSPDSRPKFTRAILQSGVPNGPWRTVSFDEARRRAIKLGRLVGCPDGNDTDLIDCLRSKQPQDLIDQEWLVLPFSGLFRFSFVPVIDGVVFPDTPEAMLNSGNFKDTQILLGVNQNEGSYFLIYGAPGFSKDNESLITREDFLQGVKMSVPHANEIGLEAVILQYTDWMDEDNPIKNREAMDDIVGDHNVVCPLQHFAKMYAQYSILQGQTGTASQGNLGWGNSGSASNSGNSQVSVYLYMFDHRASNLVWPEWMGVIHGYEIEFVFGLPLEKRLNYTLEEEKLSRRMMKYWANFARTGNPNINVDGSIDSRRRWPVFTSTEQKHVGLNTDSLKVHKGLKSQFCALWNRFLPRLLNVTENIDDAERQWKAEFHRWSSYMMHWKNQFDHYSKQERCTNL

Row | SMILES | Anticholinesterase Activity / AChE assay (IC50 μM/mL) (IC50 μM/mL) [1] | Tyrosinase activity (IC50 mM/mL) [2] | Anticholinesterase Activity / BChE assay (IC50 μM/mL) [3]
1 | COc1cc(C=NNC(=O)c2ccccc2)cc(OC)c1O [7a, N′-(4-hydroxy-3,5-dimethoxybenzylidene)benzohydrazide] | 101.04 ± 0.49 μM/mL | 88.73 ± 0.26 mM/mL | 122.04 ± 0.87 μM/mL
2 | COc1cc(C=NNC(=O)c2ccc(Br)cc2)cc(OC)c1O [7b, 4-bromo-N′-(4-hydroxy-3,5-dimethoxybenzylidene)benzohydrazide] | 93.00 ± 1.11 μM/mL | 82.08 ± 1.09 mM/mL | 116.82 ± 0.66 μM/mL
3 | COc1cc(C=NNC(=O)c2ccc(Cl)cc2)cc(OC)c1O [7c, 4-chloro-N′-(4-hydroxy-3,5-dimethoxybenzylidene)benzohydrazide] | 82.14 ± 0.56 μM/mL | 70.91 ± 0.24 mM/mL | 102.87 ± 0.48 μM/mL
4 | COc1cc(C=NNC(=O)c2ccc(F)cc2)cc(OC)c1O [7d, 4-fluoro-N′-(4-hydroxy-3,5-dimethoxybenzylidene)benzohydrazide] | 88.37 ± 0.11 μM/mL | 64.38 ± 0.99 mM/mL | 109.44 ± 0.09 μM/mL
5 | COc1ccc(C(=O)NN=Cc2cc(OC)c(O)c(OC)c2)cc1 [7e, N′-(4-hydroxy-3,5-dimethoxybenzylidene)-4-methoxybenzohydrazide] | 75.01 ± 0.94 μM/mL | 10.15 ± 0.04 mM/mL | 96.33 ± 0.61 μM/mL
6 | COc1cc(C=NNC(=O)c2ccc([N+](=O)[O-])cc2)cc(OC)c1O [7f, N′-(4-hydroxy-3,5-dimethoxybenzylidene)-4-nitrobenzohydrazide] | 40.07 ± 0.25 μM/mL | 18.22 ± 0.35 mM/mL | 52.39 ± 0.49 μM/mL
7 | COc1cc(C=NNC(=O)c2ccccc2C(F)(F)F)cc(OC)c1O [7g, N′-(4-hydroxy-3,5-dimethoxybenzylidene)-2-(trifluoromethyl)benzohydrazide] | 70.13 ± 0.89 μM/mL | 61.07 ± 0.55 mM/mL | 83.08 ± 0.34 μM/mL
8 | COc1cc(C=NNC(=O)c2cccc(C(F)(F)F)c2)cc(OC)c1O [7h, N′-(4-hydroxy-3,5-dimethoxybenzylidene)-3-(trifluoromethyl)benzohydrazide] | 73.75 ± 0.34 μM/mL | 56.88 ± 0.37 mM/mL | 88.70 ± 0.77 μM/mL
9 | COc1cc(C=NNC(=O)c2ccc(C(F)(F)F)cc2)cc(OC)c1O [7i, N′-(4-hydroxy-3,5-dimethoxybenzylidene)-4-(trifluoromethyl)benzohydrazide] | 51.08 ± 0.41 μM/mL | 49.73 ± 0.12 mM/mL | 64.09 ± 0.30 μM/mL
10 | COc1cc(C=NNC(=O)c2cc(C(F)(F)F)cc(C(F)(F)F)c2)cc(OC)c1O [7j, N′-(4-hydroxy-3,5-dimethoxybenzylidene)-3,5-bis-(trifluoromethyl)benzohydrazide] | 44.83 ± 0.12 μM/mL | 40.08 ± 0.86 mM/mL | 57.30 ± 0.87 μM/mL
11 | COc1cc(C=NNC(=O)c2ccccc2OC(F)(F)F)cc(OC)c1O [7k, N′-(4-hydroxy-3,5-dimethoxybenzylidene)-2-(trifluoromethoxy)benzohydrazide] | 59.31 ± 0.77 μM/mL | 29.78 ± 0.43 mM/mL | 69.18 ± 0.98 μM/mL
12 | COc1cc(C=NNC(=O)c2cccc(OC(F)(F)F)c2)cc(OC)c1O [7l, N′-(4-hydroxy-3,5-dimethoxybenzylidene)-3-(trifluoromethoxy)benzohydrazide] | 68.09 ± 0.02 μM/mL | 24.30 ± 0.78 mM/mL | 80.62 ± 0.36 μM/mL
13 | COc1cc(C=NNC(=O)c2ccc(OC(F)(F)F)cc2)cc(OC)c1O [7m, N′-(4-hydroxy-3,5-dimethoxybenzylidene)-4-(trifluoromethoxy)benzohydrazide] | 62.04 ± 0.39 μM/mL | 36.62 ± 0.56 mM/mL | 77.26 ± 0.42 μM/mL
